Experiments:
[1] = target: T1, Vasoactive intestinal polypeptide receptor 2 (Homo sapiens) (UniProt P41587); test: (§1) Antagonist activity at recombinant human N-terminal signal peptide/FLAG epitope-tagged VIPR2 expressed in HEK293 cells co-expressing CAMYEL assessed as inhibition of VIP-induced cAMP accumulation at 0.5 uM preincubated for 5 mins with luciferin, coelenterazine H followed by VIP addition measured after 5 mins by BRET assay relative to control; assay type: functional, cell-based
T1 sequence (whole entry): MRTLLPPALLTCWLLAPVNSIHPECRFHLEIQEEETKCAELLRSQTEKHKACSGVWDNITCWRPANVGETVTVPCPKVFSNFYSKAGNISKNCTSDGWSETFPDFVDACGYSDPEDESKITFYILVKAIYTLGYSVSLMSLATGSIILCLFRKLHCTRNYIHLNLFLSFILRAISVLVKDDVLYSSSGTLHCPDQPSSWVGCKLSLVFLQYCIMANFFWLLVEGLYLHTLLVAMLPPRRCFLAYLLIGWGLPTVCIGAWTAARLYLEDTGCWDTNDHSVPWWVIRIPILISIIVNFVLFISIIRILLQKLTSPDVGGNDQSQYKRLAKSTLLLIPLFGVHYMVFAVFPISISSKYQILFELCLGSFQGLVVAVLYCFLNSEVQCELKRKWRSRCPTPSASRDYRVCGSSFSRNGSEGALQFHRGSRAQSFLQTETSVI

[2] = target: T1, Vasoactive intestinal polypeptide receptor 2 (Homo sapiens); test: as §1, with “5” for “0.5”; assay type: functional, cell-based
[3] = target: T1, Vasoactive intestinal polypeptide receptor 2 (Homo sapiens); test: as §1, with “1” for “0.5”; assay type: functional, cell-based
[4] = target: T1, Vasoactive intestinal polypeptide receptor 2 (Homo sapiens); test: as §1, with “epitope-tagged Rluc8-fused” for “epitope-tagged”, “cells” for “cells co-expressing CAMYEL”, “human mVenus-beta-arrestin2 binding” for “cAMP accumulation”; assay type: cell-based
[5] = target: T1, Vasoactive intestinal polypeptide receptor 2 (Homo sapiens); test: as §1, with “epitope-tagged Rluc8-fused” for “epitope-tagged”, “cells” for “cells co-expressing CAMYEL”, “human mVenus-beta-arrestin2 binding” for “cAMP accumulation”, “5” for “0.5”; assay type: cell-based
[6] = target: T1, Vasoactive intestinal polypeptide receptor 2 (Homo sapiens); test: as §1, with “epitope-tagged Rluc8-fused” for “epitope-tagged”, “cells” for “cells co-expressing CAMYEL”, “human mVenus-beta-arrestin2 binding” for “cAMP accumulation”, “1” for “0.5”; assay type: cell-based

| Compound | inhibition [1] [%] | inhibition [2] [%] | inhibition [3] [%] | inhibition [4] [%] | inhibition [5] [%] | inhibition [6] [%] |
| --- | --- | --- | --- | --- | --- | --- |
| O=C(N[C@H]1c2ccccc2C[C@H]1O)[C@H](Cc1ccccc1)C[C@H](O)CNS(=O)(=O)c1ccc(C(=O)N2CCCCC2)cc1 | -5.3 | -1.4 | -7.3 | -6.85 to 0 |  |  |
| CNC(=O)c1ccc(S(=O)(=O)NC[C@@H](O)C[C@@H](Cc2ccccc2)C(=O)N[C@H]2c3ccccc3C[C@H]2O)cc1 | 13.8 | 69.5 | 22.1 | 6.3 to 34.2 | -1 | -1.6 |
| O=C(NC1CCCc2ccccc21)[C@@H](Cc1ccccc1)C[C@H](O)CNS(=O)(=O)c1ccc([N+](=O)[O-])cc1 (stereo not given in full) | 5.1 | 17.4 to 69.5 | 6.6 to 69.5 | 4.8 to 9 | 0.6 | 5.9 |
| O=C(NC1CCCCCC1)[C@@H](Cc1ccccc1)C[C@H](O)CNS(=O)(=O)c1ccc([N+](=O)[O-])cc1 | 15.5 | 14.3 | 10.6 | -4 to 10.6 | 6.8 | 3.6 |
| O=C(NC1Cc2ccccc2C1)[C@H](Cc1ccccc1)C[C@H](O)CNS(=O)(=O)c1ccc([N+](=O)[O-])cc1 | 5.7 | 16 | 7.5 | -2.7 to 12.9 | 9.8 | 8.1 |
| CCN(CC)C(=O)[C@H](Cc1ccccc1)C[C@H](O)CNS(=O)(=O)c1ccc([N+](=O)[O-])cc1 | -8.1 | -4.3 | -6.1 | -5.4 to 0.7 | 5.7 | 7.9 |
| C#CCNC(=O)[C@@H](Cc1ccccc1)C[C@H](O)CNS(=O)(=O)c1ccc([N+](=O)[O-])cc1 | 3.1 | 13.5 | 7.3 | 3.3 to 10.2 | 7 | 3.4 |
| C#CCNC(=O)[C@H](Cc1ccccc1)C[C@H](O)CNS(=O)(=O)c1ccc([N+](=O)[O-])cc1 | 5.4 | 7.3 | 7.8 | 3.55 to 9.4 | -0.2 | 7.2 |
| C=Cc1ccc(C(=O)NC[C@@H](O)C[C@@H](Cc2ccccc2)C(=O)N[C@H]2c3ccccc3C[C@H]2O)cc1 | 16.1 | 23.8 | 16.5 | 2.3 to 12.8 | 1.8 | 47.5 |
| COc1cc(C(=O)NC[C@@H](O)C[C@@H](Cc2ccccc2)C(=O)N[C@H]2c3ccccc3C[C@H]2O)cc(OC)c1OC | 15.6 | 9.3 | 20 | 13.7 to 29.6 | 18 | 37.2 |
| O=C(NC1CCCc2ccccc21)[C@H](Cc1ccccc1)C[C@H](O)CNS(=O)(=O)c1ccc([N+](=O)[O-])cc1 (stereo not given in full) | 8.8 | 17.5 | 12.4 | 3.3 to 13.8 | 10.2 | 7.4 |
| CC(C)CS(=O)(=O)NC[C@@H](O)C[C@@H](Cc1ccccc1)C(=O)N[C@H]1c2ccccc2C[C@H]1O | 13.3 | 22.2 | 15.6 | 7.1 to 21.1 | 20 | 3.2 |
| CC(C)c1cc(C(C)C)c(S(=O)(=O)NC[C@@H](O)C[C@@H](Cc2ccccc2)C(=O)N[C@H]2c3ccccc3C[C@H]2O)c(C(C)C)c1 | 19.5 | 90 | 18.6 | 29.7 to 49.1 | 8.3 | 30.9 |
| CC1CCC(NC(=O)[C@H](Cc2ccccc2)C[C@H](O)CNS(=O)(=O)c2ccc([N+](=O)[O-])cc2)CC1 (stereo not given in full) | -5 | -2.8 | -2.5 | -1.2 to 13.4 | 0.4 | -1.3 |
| O=C(NC1CCCC1)c1ccc(S(=O)(=O)NC[C@@H](O)C[C@@H](Cc2ccccc2)C(=O)N[C@H]2c3ccccc3C[C@H]2O)cc1 | 15.2 | 31.8 | 19.6 | 3.9 to 15.9 | 0.1 | 0.5 |
| O=C(NC[C@@H](O)C[C@@H](Cc1ccccc1)C(=O)N[C@H]1c2ccccc2C[C@H]1O)c1ccc([N+](=O)[O-])cc1 | 14 | 21.1 | 22.3 | -0.5 to 18.8 | 16.4 | 18.6 |
| O=C([C@@H](Cc1ccccc1)C[C@H](O)CNS(=O)(=O)c1ccc([N+](=O)[O-])cc1)N1CCOCC1 | -5.8 | 3 |  | 1.65 to 7 | 0.3 |  |

| Compound | inhibition [1] [%] | inhibition [2] [%] | inhibition [3] [%] | inhibition [4] [%] | inhibition [5] [%] | inhibition [6] [%] |
| --- | --- | --- | --- | --- | --- | --- |
| O=C(NC1CCCCCC1)[C@H](Cc1ccccc1)C[C@H](O)CNS(=O)(=O)c1ccc([N+](=O)[O-])cc1 | 1.7 | 12.9 | 5.6 |  | -2.4 | -5.4 |
| O=C([C@H](Cc1ccccc1)C[C@H](O)CNS(=O)(=O)c1ccc([N+](=O)[O-])cc1)N1CCC(CO)CC1 | 2.1 | 6.2 | 4.4 | -8.4 to 0.85 | -4.5 |  |
| O=C([C@H](Cc1ccccc1)C[C@H](O)CNS(=O)(=O)c1ccc([N+](=O)[O-])cc1)N1CCCCC1 | -4.8 | 0.5 | -4.8 |  | -2.8 |  |
| CCN(CC)C(=O)[C@@H](Cc1ccccc1)C[C@H](O)CNS(=O)(=O)c1ccc([N+](=O)[O-])cc1 | 0.5 |  | -8.4 | -6.6 to -3.6 | -2.7 | 1.2 |
| C[C@H](CC(C)(C)C)NC(=O)[C@H](Cc1ccccc1)C[C@H](O)CNS(=O)(=O)c1ccc([N+](=O)[O-])cc1 | -7.9 | -0.1 | 4.4 | -5.2 to 23.3 |  | 3 |
| Cc1ccc([N+](=O)[O-])cc1S(=O)(=O)NC[C@@H](O)C[C@@H](Cc1ccccc1)C(=O)N[C@H]1c2ccccc2C[C@H]1O | 10.9 | 18.3 | 13.6 |  | -0.6 | -3.8 |
| O=C(NC[C@@H](O)C[C@@H](Cc1ccccc1)C(=O)N[C@H]1c2ccccc2C[C@H]1O)c1ccncc1 | 14.2 | 21 | 19.2 |  | -8.8 | 10.9 |
| CC(C)C(=O)NC[C@@H](O)C[C@@H](Cc1ccccc1)C(=O)N[C@H]1c2ccccc2C[C@H]1O | 0.7 | -0.9 | 2.6 |  |  |  |
| CO[C@@H]1Cc2ccccc2[C@@H]1NC(=O)[C@H](Cc1ccccc1)C[C@H](O)CNS(=O)(=O)c1ccc([N+](=O)[O-])cc1 | 15.7 | 5.9 | 5.9 | -7.1 to -2.05 | -10 |  |
| O=C(NCc1ccc(F)cc1F)[C@H](Cc1ccccc1)C[C@H](O)CNS(=O)(=O)c1ccc([N+](=O)[O-])cc1 | 2.4 | 22.1 to 23.6 | 7.2 to 22.1 |  | 30.8 |  |
| CCNC(=O)[C@@H](Cc1ccccc1)C[C@H](O)CNS(=O)(=O)c1ccc([N+](=O)[O-])cc1 |  |  | -0.9 | -10 to 14.9 | -7.6 | 6 |
| CCNC(=O)[C@H](Cc1ccccc1)C[C@H](O)CNS(=O)(=O)c1ccc([N+](=O)[O-])cc1 | -7.1 | -6.2 | -0.4 | -9.25 to 15.2 |  | 0.1 |
| O=C(NC[C@@H](O)C[C@@H](Cc1ccccc1)C(=O)N[C@H]1c2ccccc2C[C@H]1O)c1cccc(CCl)c1 | 0.5 | 15.1 | 2.3 | -8.1 to 2.4 |  | 5.7 |
| O=C(CCCCBr)NC[C@@H](O)C[C@@H](Cc1ccccc1)C(=O)N[C@H]1c2ccccc2C[C@H]1O | 11.7 | 9.4 | 12.9 | -0.6 to 1.7 |  |  |
| CCC(=O)Nc1ccc(S(=O)(=O)NC[C@@H](O)C[C@@H](Cc2ccccc2)C(=O)N[C@H]2c3ccccc3C[C@H]2O)cc1 | 0.6 | 26.9 | 1.5 | -3.4 to 8.25 |  | -1.2 |
| NC(=O)[C@H](Cc1ccccc1)C[C@H](O)CNS(=O)(=O)c1ccc([N+](=O)[O-])cc1 | 6.7 | 2.1 | 3.6 | -6.5 to 10.4 |  |  |
| CO[C@@H]1Cc2ccccc2[C@@H]1NC(=O)[C@H](Cc1ccccc1)C[C@H](O)CN(C)S(=O)(=O)c1ccc([N+](=O)[O-])cc1 | 21.1 | 26 | 11.3 | 4.9 to 6.9 |  |  |
